The nature of series [1]: Stability of the compound in aqueous medium assessed as hydrolysis after 10 mins to 24 hrs by HPLC analysis. Format: physicochemical. To be noted: buffer.
Series [2] in a line: Stability of the compound in organic solvent assessed as hydrolysis after 10 mins to 24 hrs by HPLC analysis. The class given is physicochemical.
Series [3] has as its target T1, Histone acetyltransferase p300 (Homo sapiens, UniProt Q09472). As to the kind of experiment: Inhibition of P300 (unknown origin) using histone H3/[acetyl-3H]-acetyl coenzyme A as substrate at 100 uM.
Series [4] concerns the target T2, Histone acetyltransferase KAT2B (Homo sapiens, UniProt Q92831). As to the kind of experiment: Inhibition of PCAF (unknown origin) using histone H3/[acetyl-3H]-acetyl coenzyme A as substrate at 100 uM.
Target sequence in this assay (Q92831 whole entry, looked up): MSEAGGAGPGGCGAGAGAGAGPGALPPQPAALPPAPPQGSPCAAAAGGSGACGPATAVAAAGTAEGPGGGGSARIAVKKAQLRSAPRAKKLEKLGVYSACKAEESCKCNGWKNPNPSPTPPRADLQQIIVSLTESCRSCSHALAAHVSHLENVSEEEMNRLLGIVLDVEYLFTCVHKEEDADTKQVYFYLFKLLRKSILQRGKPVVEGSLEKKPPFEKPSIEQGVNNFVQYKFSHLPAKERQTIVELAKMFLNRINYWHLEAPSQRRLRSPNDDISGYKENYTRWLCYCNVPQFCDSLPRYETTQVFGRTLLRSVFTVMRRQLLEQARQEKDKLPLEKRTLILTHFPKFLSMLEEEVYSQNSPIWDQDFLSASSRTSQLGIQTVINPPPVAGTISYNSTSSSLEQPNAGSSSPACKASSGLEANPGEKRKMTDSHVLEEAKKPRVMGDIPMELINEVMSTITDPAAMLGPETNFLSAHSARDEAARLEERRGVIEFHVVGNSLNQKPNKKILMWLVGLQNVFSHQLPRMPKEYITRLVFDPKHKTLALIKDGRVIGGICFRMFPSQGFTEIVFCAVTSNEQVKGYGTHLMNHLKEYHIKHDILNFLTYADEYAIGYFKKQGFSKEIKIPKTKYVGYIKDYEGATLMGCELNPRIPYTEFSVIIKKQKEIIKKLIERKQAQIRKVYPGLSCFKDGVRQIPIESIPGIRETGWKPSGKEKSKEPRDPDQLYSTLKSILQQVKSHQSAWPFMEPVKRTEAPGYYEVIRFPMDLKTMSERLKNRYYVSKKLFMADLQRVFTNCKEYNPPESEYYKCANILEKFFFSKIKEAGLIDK
Series [5] concerns the target T1, Histone acetyltransferase p300. Nature of the series: Inhibition of P300 (unknown origin) using histone H3/[acetyl-3H]-acetyl coenzyme A as substrate.
Series [6] shares this target. The following applies: 10 uM.
Description: Inhibition of P300 (unknown origin) using histone H3/[acetyl-3H]-acetyl coenzyme A as substrate at 10 uM
Series [7] is described as follows: Apparent permeability of the compound at RT after 24 hrs by PAMPA. Format: physicochemical.
A short description of series [8]: Stability of the compound in aqueous medium assessed as hydrolysis after 30 mins by HPLC analysis. Format: physicochemical. The following applies: buffer, 0.5 h.
The target in series [9] is T2, Histone acetyltransferase KAT2B. As to the kind of experiment: Inhibition of PCAF (unknown origin) using histone H3/[acetyl-3H]-acetyl coenzyme A as substrate at 10 uM.
Target sequence in this assay (Q92831 whole entry, looked up): as above
For series [10] the target is unchanged. As to the kind of experiment: Inhibition of PCAF (unknown origin) using histone H3/[acetyl-3H]-acetyl coenzyme A as substrate.
Target sequence in this assay (Q92831 whole entry): as the sequence (Q92831 whole entry, looked up) above
Series [11] addresses T1, Histone acetyltransferase p300. Nature of the series: Inhibition of P300 in […] at 30 uM up to 40 mins by Histac FRET analysis. The class given is cell-based. The following applies: COS-7.
Series [12] shares this target. Nature of the series: Binding affinity to human recombinant P300 catalytic domain by SPR analysis.
Series [13] is described as follows: Stability of the compound in PBS at 25 degC after 2 mins to 24 hrs by HPLC analysis. The class given is physicochemical. The following applies: buffer.

Activity calls are given as the source filed them. The calls are words filed in the database; no cut-off is given here. Bounds are passed on as bounds.

T1 sequence (Q09472 whole entry): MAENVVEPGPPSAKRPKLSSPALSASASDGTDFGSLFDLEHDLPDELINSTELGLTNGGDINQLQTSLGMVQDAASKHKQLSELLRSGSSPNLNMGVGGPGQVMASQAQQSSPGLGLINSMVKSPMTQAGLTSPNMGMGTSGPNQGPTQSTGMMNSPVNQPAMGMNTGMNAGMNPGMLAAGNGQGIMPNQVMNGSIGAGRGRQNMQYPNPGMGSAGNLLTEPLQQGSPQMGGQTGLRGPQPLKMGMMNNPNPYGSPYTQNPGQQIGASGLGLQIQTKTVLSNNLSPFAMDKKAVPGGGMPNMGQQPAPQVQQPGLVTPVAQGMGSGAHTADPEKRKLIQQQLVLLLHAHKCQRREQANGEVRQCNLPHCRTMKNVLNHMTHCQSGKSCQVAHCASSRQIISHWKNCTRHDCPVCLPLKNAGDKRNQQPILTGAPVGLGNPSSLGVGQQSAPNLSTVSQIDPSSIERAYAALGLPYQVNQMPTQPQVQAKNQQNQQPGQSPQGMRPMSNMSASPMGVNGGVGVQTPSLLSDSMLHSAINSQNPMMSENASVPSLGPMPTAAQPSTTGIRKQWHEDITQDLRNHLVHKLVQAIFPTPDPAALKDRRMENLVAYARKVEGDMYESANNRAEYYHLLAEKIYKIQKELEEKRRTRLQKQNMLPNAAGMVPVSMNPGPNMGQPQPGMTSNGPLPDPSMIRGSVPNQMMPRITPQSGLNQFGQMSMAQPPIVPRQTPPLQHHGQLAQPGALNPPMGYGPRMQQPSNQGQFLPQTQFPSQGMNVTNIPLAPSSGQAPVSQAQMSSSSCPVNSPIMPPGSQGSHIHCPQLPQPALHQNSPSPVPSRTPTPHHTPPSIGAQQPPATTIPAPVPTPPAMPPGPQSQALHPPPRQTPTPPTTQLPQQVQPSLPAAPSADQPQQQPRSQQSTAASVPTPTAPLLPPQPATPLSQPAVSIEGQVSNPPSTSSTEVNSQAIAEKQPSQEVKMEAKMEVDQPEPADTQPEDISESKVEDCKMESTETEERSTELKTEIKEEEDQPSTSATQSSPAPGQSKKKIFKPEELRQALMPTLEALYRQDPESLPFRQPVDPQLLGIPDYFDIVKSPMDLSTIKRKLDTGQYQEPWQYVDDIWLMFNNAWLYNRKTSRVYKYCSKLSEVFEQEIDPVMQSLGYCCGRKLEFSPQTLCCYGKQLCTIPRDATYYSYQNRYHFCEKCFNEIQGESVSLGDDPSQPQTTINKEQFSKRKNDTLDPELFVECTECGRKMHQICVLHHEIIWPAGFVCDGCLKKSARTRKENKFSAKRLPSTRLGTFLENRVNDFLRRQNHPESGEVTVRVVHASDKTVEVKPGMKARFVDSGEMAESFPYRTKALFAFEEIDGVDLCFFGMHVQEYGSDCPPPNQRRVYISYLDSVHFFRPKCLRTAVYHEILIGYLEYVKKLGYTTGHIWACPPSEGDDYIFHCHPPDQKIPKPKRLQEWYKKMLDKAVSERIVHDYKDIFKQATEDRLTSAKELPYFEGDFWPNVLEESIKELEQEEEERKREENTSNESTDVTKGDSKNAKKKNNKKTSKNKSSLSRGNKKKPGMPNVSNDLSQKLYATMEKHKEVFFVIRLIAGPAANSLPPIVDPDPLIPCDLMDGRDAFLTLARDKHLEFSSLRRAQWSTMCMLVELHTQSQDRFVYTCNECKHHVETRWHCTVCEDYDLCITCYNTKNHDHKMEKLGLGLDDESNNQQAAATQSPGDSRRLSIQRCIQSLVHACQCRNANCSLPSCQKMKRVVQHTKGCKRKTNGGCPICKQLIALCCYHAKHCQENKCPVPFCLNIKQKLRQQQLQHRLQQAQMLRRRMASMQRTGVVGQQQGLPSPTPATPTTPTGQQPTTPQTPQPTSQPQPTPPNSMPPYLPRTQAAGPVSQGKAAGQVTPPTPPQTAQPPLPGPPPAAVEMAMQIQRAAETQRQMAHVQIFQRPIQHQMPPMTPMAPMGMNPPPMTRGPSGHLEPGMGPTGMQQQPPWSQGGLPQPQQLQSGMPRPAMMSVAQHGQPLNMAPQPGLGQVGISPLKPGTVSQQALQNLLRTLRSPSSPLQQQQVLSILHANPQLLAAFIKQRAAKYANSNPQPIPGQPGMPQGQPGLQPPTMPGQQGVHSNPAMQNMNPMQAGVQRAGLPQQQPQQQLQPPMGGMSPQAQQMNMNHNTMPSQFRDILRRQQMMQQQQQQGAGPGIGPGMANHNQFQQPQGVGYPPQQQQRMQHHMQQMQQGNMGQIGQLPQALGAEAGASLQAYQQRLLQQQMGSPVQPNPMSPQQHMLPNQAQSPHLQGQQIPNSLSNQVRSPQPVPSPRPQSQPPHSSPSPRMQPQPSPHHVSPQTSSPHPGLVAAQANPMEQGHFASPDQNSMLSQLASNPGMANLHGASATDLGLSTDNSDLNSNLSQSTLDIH

With `CC(C)CN1C(=O)C(=Cc2ccccc2)C(=O)N(CC(C)C)C1=O`, the Stability entry in series [1] is given as “Unstable”; in series [2] it was “Stable”.
One may read the inhibition as the relative decrease from the control value, in per cent. With `C=CCN1C(=O)C(=Cc2ccc(O)c(O)c2)C(=O)N(CC=C)C1=O`, the inhibition stood at 61.6% in series [3] and 3.3% in series [4]. The Stability result in [1] is on record as “Unstable”; in series [2], “Stable”.
For `CC(C)CN1C(=O)C(Cc2ccc(O)c(O)c2)C(=O)N(CC(C)C)C1=O`, the inhibition in [3] is 24.3%.
Still for that read-out and setting: the figure for `O=C(c1ccc(O)c(O)c1)C1C(=O)N(Cc2ccccc2)C(=O)N(Cc2ccccc2)C1=O` is 48.2%.
With `C=CCN1C(=O)C(=Cc2ccccc2)C(=O)N(CC=C)C1=O`, the Stability entry is listed as “Unstable” in series [1] and “Stable” in series [2].
On to `C=CCN1C(=O)C(=Cc2ccc(O)cc2)C(=O)N(CC=C)C1=O`, for which the inhibition is 64.7% in series [3] and 3.1% in [4]. Also, the Stability result in [1] is “Unstable”; in series [2], “Stable”.
With `C=CCN1C(=O)C(Cc2ccccc2)C(=O)N(CC=C)C1=O`, the inhibition in series [3] was determined as 28.9%.
On to `COc1ccc(C=C2C(=O)N(CC(C)C)C(=O)N(CC(C)C)C2=O)cc1`, for which the inhibition in series [3] was determined as 53.8%; in series [4] it was 3.6%. Further, the results for the Stability entry in series [1] and in [2] were “Unstable” and “Stable”, respectively.
Consider `CC(C)CN1C(=O)C(C(=O)c2ccc(O)cc2)C(=O)N(CC(C)C)C1=O`, for which the values for the inhibition in series [3] and in series [4] were 39.7% and 19.3%, respectively.
As to `C=CCN1C(=O)C(Cc2ccc(O)cc2)C(=O)N(CC=C)C1=O`, the figures for the inhibition in series [3] and in [4] were 23.7% and -7.5%, respectively.
In the case of `C=CCN1C(=O)C(=Cc2ccc(OC)cc2)C(=O)N(CC=C)C1=O`, the inhibition in [3] turned out to be 59.9%; in [4] it was 11.7%. The results for the Stability result in [1] and in series [2] were “Unstable” and “Stable”, respectively.
In general, IC50 refers to the point on the concentration scale where inhibition reaches its midpoint. Low readings indicate greater potency, high ones weaker potency. As to `COc1ccc(C=C2C(=O)N(Cc3ccccc3)C(=O)N(Cc3ccccc3)C2=O)cc1`, the inhibition was 93.6% in [3] and -8.2% in series [4]. For the same molecule, half-maximal inhibition in series [5] (IC50) was put at 8 µM. Also, the figures for the Stability result in series [1] and in series [2] were “Unstable” and “Stable”, respectively.
As to `CC(C)CN1C(=O)C(=Cc2ccc(O)c(O)c2)C(=O)N(CC(C)C)C1=O`, the inhibition in series [3] stood at 91.8%. In series [5], half-maximal inhibition (IC50) was put at 5.4 µM. Moreover, the Stability result in series [1] is “Unstable”; in [2], “Stable”.
Molecule `CC1=NN(c2ccc(C(=O)O)cc2)C(=O)/C1=C\Cc1ccc(Cc2cc(C)c(C)cc2[N+](=O)[O-])o1` registered a half-maximal inhibitory concentration (IC50) in series [5] of 1.6 µM. In addition, the inhibition in [6] is 86%.
Regarding `COc1ccc(C=C2C(=O)N(CC(C)C)C(=O)N(CC(C)C)C2=O)cc1OC`, the inhibition in [3] is 45.8%; in series [4] it was 9.2%. Moreover, the results for the Stability result in series [1] and in [2] were “Unstable” and “Stable”, respectively.
Consider `COc1ccc(C=C2C(=O)N(Cc3ccccc3)C(=O)N(Cc3ccccc3)C2=O)cc1OC`, for which the inhibition in series [3] is 88.2%. In [5], this molecule had an IC50 of 11.4 µM. Further, the Stability entry in series [1] is recorded as “Unstable”; in [2], “Stable”.
As for `C=CCN1C(=O)C(C(=O)c2ccccc2)C(=O)N(CC=C)C1=O`, the inhibition in series [3] worked out at 28.1%.
In the case of `C=CCN1C(=O)C(C(=O)c2ccc(O)c(O)c2)C(=O)N(CC=C)C1=O`, the inhibition in [3] was 4.9%; in series [4], 3.6%.
The matching figures for `C=CCN1C(=O)C(C(=O)c2ccc(O)cc2)C(=O)N(CC=C)C1=O`: 19.1% and -2.7%.
Take `O=C1C(=Cc2ccccc2)C(=O)N(Cc2ccccc2)C(=O)N1Cc1ccccc1`: the Stability entry is “Unstable” in series [1] and “Stable” in [2].
Turning to `C=CCN1C(=O)C(Cc2ccc(O)c(O)c2)C(=O)N(CC=C)C1=O`, the inhibition in series [3] worked out at 1.1%.
On to `CC(C)CN1C(=O)C(C(=O)c2ccccc2)C(=O)N(CC(C)C)C1=O`, for which, in series [3], the inhibition amounted to 34.1%.
The Papp is the rate of passage across a membrane or cell layer, normalised by area and donor concentration. Turning to `CC(C)NCC(O)COc1cccc2ccccc12` (stereo not drawn) [PROPRANOLOL], the apparent permeability coefficient (Papp) at 24 h in series [7] is 4.1 ×10⁻⁶ cm/s.
Consider `CC(C)CN1C(=O)C(Cc2ccc(O)cc2)C(=O)N(CC(C)C)C1=O`, for which the inhibition in series [3] was 64.6%; in series [4], 5%.
As to `COc1ccc(C=C2C(=O)N(CC(C)C)C(=O)N(CC(C)C)C2=O)cc1O`, the inhibition in [3] came to 84.7%; in series [4], 10.6%. The 50% inhibitory concentration (IC50) in series [5] came out at 31.4 µM. For the same molecule, the figures for the Stability result in series [1] and in [2] were “Unstable” and “Stable”, respectively.
Regarding `O=C1C(=Cc2ccc(O)c(O)c2)C(=O)N(Cc2ccccc2)C(=O)N1Cc1ccccc1`, the inhibition in [3] is 96.2%; in [4] it was -2.3%. In [5], this molecule came in with a 50% inhibitory concentration (IC50) of 1.6 µM. Moreover, the Stability entry in [1] is listed as “Unstable”; in [8] it was “Unstable”; in [2], “Stable”.
For the molecule `O=C1C(Cc2ccc(O)cc2)C(=O)N(Cc2ccccc2)C(=O)N1Cc1ccccc1`, the inhibition in [3] came to 60.3%.
Consider `CCCCCCCCCCCCCCCc1cccc(O)c1C(=O)O` [ANACARDIC ACID], for which the inhibition in series [4] was 3.6%; in [9], < 10%. The molecule further displayed a 50% inhibitory concentration (IC50) in [10] of 33.9 µM.
As for `C=CCN1C(=O)C(=Cc2ccc(O)c(OC)c2)C(=O)N(CC=C)C1=O`, the inhibition in series [3] was 67.3%; in series [4], 5.1%. The same molecule gave an IC50 in series [5] of 26.4 µM. Also, the values for the Stability entry in series [1] and in series [2] were “Unstable” and “Stable”, respectively.
For the molecule `CC(C)CN1C(=O)C(Cc2ccccc2)C(=O)N(CC(C)C)C1=O`, the inhibition in [3] was found to be 23.1%.
As to `O=C1C(=Cc2ccc(O)cc2)C(=O)N(Cc2ccccc2)C(=O)N1Cc1ccccc1`, the inhibition is 99.2% in series [3] and -0.6% in series [4]. In [5], the IC50 turned out to be 2.1 µM. Further, the inhibition entry in [11] was “Active”. For the same molecule, the results for the Stability result in series [1], in series [8] and in series [2] were “Unstable”, “Unstable” and “Stable”, respectively.
With `COc1cc(C=C2C(=O)N(Cc3ccccc3)C(=O)N(Cc3ccccc3)C2=O)ccc1O`, in [3], the inhibition was determined as 97.1%. This molecule also yielded an IC50 in [5] of 1.5 µM. The Stability result in [1] was “Unstable”; in series [8], “Unstable”; in series [2], “Stable”.
Consider `CC(C)CN1C(=O)C(=Cc2ccc(O)cc2)C(=O)N(CC(C)C)C1=O`, for which the inhibition in series [3] came out at 94%. This molecule showed an IC50 in [5] of 8.5 µM. The values for the Stability entry in [1] and in series [2] were “Unstable” and “Stable”, respectively.
As for `C=CCN1C(=O)C(=Cc2ccc(OC)c(O)c2)C(=O)N(CC=C)C1=O`, the inhibition in [3] is 49.5%; in [4], 3%. Also, the Stability result is recorded as “Unstable” in [1] and “Stable” in series [2].
As to `COc1ccc(C=C2C(=O)N(Cc3ccccc3)C(=O)N(Cc3ccccc3)C2=O)cc1O`, in series [3], the inhibition was 97.3%. Further, in series [5], the IC50 is 5.9 µM. The values for the Stability entry in [1], in series [8] and in series [2] were “Unstable”, “Unstable” and “Stable”, respectively.
With `CC(C)CN1C(=O)C(C(=O)c2ccc(O)c(O)c2)C(=O)N(CC(C)C)C1=O`, the inhibition in [3] was 8.4%; in [4], 3.4%.
A word on the Kd: it is the equilibrium constant for the complex coming apart. As to `O=C1C(Cc2ccccc2)C(=O)N(Cc2ccccc2)C(=O)N1Cc1ccccc1`, the inhibition in series [3] was 83.9%. Moreover, the dissociation constant (Kd) in series [12] was found to be 0.11 µM. Also, the Stability entry in series [13] is recorded as “Stable”.
For the molecule `COc1cc(C=C2C(=O)N(CC(C)C)C(=O)N(CC(C)C)C2=O)ccc1O`, the inhibition in series [3] came out at 96.4%; in series [4], 9.3%. In series [5], inhibition was half-maximal at 4.2 µM (IC50). The Stability entry in [1] is “Unstable”; in series [2], “Stable”.
Consider `C=CCN1C(=O)C(=Cc2ccc(OC)c(OC)c2)C(=O)N(CC=C)C1=O`, for which the inhibition was found to be 31.1% in series [3] and 6.6% in series [4]. For the same molecule, the figures for the Stability entry in series [1] and in series [2] were “Unstable” and “Stable”, respectively.
As to `O=C(c1ccc(O)cc1)C1C(=O)N(Cc2ccccc2)C(=O)N(Cc2ccccc2)C1=O`, the inhibition in [3] was 54.4%.
The same measure, in the same setting: the figure for `O=C1C(Cc2ccc(O)c(O)c2)C(=O)N(Cc2ccccc2)C(=O)N1Cc1ccccc1` is 59.9%.
`O=C(c1ccccc1)C1C(=O)N(Cc2ccccc2)C(=O)N(Cc2ccccc2)C1=O`: the inhibition in series [3] was 84.8%. Moreover, in series [12], the Kd is 2.4 µM. Besides, the Stability entry in series [13] is listed as “Stable”.
